Data from patent publication US20220054448A1, “NOVEL POLYMETH[…] FOR SKELETAL MUSCLE MODULATION, METHODS AND USES THEREOF” (SOCIETE DES PRODUITS NESTLE S.A., priority 2018, published 2022).

Test system: Muscle Stem Cells
Assay: In vivo muscle regeneration after intramuscular cardiotoxin injury
Conditions: mouse, oral gavage 100 mg/kg body weight once a day from one week before cardiotoxin injury; muscles harvested 5 days after injury; versus water control
Procedure: FIG. 5—In Vivo Muscle Regeneration: Measurement of Early Phase Expansion and Differentiation of Muscle Stem Cells
Early phase of expansion and subsequent phase of myogenic differentiation of Muscle Stem Cells were evaluated.
Data are expressed as number of cells per area of injured muscle.
The size of each newly formed myofiber has been measured based on the expression of the eMHC and laminin that allow to recognize and delineate these nascent myofibers. Results are shown as mean myofiber cross-sectional area (μm^2).
In order to reproduce the physiological process of muscle regeneration that occurs in adult skeletal muscles in response to injury or disease, we performed an intramuscular injection of cardiotoxin into mouse hindlimb muscles. One week prior to the induction of the muscle injury, mice were given by oral gavage compounds of the invention; either cirsimaritin or xanthomicrol at 100 mg/kg body weight and water was used as a control. […] Several myogenic markers were then measured. […]
In particular, this is shown be the early phase of expansion evaluated by counting the number of Pax7+ cells shown in FIG. 5A and the subsequent phase of myogenic differentiation of Muscle Stem Cells measured by counting the number of myogenin+ cells shown in FIG. 5B, respectively. Data were expressed as number of cells per arear of injured muscle. […]

| SMILES | in vivo muscle regeneration process (number of Pax7+ cells, number of myogenin+ cells, size of newly formed myofibers) |
| --- | --- |
| COc1cc2oc(-c3ccc(O)cc3)cc(=O)c2c(O)c1OC [Cirsimaritin, 5,4′-Dihydroxy-6,7-dimethoxyflavone] | promote the in vivo muscle regeneration process |
| COc1c(OC)c(O)c2c(=O)cc(-c3ccc(O)cc3)oc2c1OC [Xanthomicrol, 5,4′-Dihydroxy-6,7,8-trimethoxyflavone] | promote the in vivo muscle regeneration process |
